PMC5842505, “Allosteric Inhibition of Serotonin 5-HT7 Receptors by Zinc Ions” (Molecular Neurobiology, 2017)
Where two headings read alike, the source gives them in different places.

Experiments:
[1] = target: T1, human 5-HT7 receptor (Homo sapiens, UniProt P34969); assay: Screen of monovalent and divalent cations on radioligand binding; settings: for decrease in radioligand binding relative to the control: higher cation concentration (5 mM)
Description: Non-specific binding was defined by the binding obtained in the presence of 10 μM 5-HT. The incubation buffer consisted of 50 mM Tris–HCl (pH 7.7), 4 mM MgCl2, 10 μM pargyline, and 0.1% ascorbic acid. The binding reactions were stopped by filtration through GF/B UniFilter plates using a harvester (PerkinElmer). The plate filters were then dried, and 20 μl of Ultima Gold MV (PerkinElmer) was added. Radioactivity was measured using a MicroBeta TriLux counter (PerkinElmer).
Initially, different monovalent and divalent cations (Na^+, K^+, Mg^2+, Ca^2+, and Zn^2+) were screened at concentrations of 500 μM and 5 mM to assess whether they had any effects on the 5-HT7 receptor (Fig. 1).
The binding of radioligands in the absence of the tested cations is referred to as basal specific binding and was set to 100% (dotted line)

[2] = target: T2, human 5-HT7b receptor (Homo sapiens, UniProt P34969); assay: LANCE cAMP functional assay in HEK293 cells expressing the 5-HT7 receptor; assay type: cell-based; settings: for K B: antagonist vs 10 nM 5-CT; for effect on constitutive (unstimulated cAMP) activity: constitutively active 5-HT7 HEK293 cell line
T2 construct: The full-length human 5-HT7b receptor complementary DNA (cDNA)
T2 sequence (P34969 1-432 limits assumed): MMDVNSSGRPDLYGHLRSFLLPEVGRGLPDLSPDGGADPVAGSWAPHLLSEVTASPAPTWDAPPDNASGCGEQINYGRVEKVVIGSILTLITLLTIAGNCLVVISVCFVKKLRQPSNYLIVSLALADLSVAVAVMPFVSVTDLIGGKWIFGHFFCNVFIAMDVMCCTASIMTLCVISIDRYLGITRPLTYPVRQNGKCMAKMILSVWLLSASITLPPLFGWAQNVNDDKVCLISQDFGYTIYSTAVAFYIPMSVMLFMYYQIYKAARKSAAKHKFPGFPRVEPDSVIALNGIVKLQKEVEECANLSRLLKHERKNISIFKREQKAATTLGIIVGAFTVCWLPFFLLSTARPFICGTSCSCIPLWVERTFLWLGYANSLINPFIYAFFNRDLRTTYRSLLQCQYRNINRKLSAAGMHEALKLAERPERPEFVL
Description: (§1) HEK293 cells stably expressing the human 5-HT7b receptor were grown in Dulbecco’s Modified Eagle’s Medium (DMEM) (Lonza, Basel, Switzerland) supplemented with 10% dialyzed fetal bovine serum (FBS) (Lonza) and 500 μg/ml G418 sulfate (Sigma-Aldrich) at 37 °C in a humidified atmosphere with 5% CO2. For the membrane preparations, the cells were sub-cultured in 150-cm^2 flasks, grown to 90% confluence, washed twice with phosphate-buffered saline (PBS) pre-warmed to 37 °C, and pelleted by centrifugation (200×g for 5 min) in PBS containing 0.1 mM ethylenediaminetetraacetic acid (EDTA) and 1 mM dithiothreitol (DTT). Prior to the membrane preparation, the pellets were frozen at −80 °C. For the functional experiments, the cells were sub-cultured in 75-cm^2 flasks, grown to 90% confluence, washed twice with PBS pre-warmed to 37 °C, and pelleted by centrifugation (180×g) in PBS containing 0.5 mM EDTA. The supernatant was aspirated, and the cell pellet was resuspended in stimulation buffer (1× HBSS, 5 mM HEPES, 0.5 mM IBMX, 0.1% BSA).
Each compound was tested at eight concentrations ranging from 0.01 nM to 100 μM. The total level of cAMP was measured using the LANCE cAMP detection kit (PerkinElmer) according to the manufacturer’s recommendations. To quantify the cAMP levels, 200 or 1000 (for measuring constitutive activity) cells/well (5 μl) were incubated with compounds (5 μl) for 30 min at room temperature in a 384-well white opaque microtiter plate. After incubation, 10 μl of the working solution (5 μl Eu-cAMP and 5 μl ULight-anti-cAMP) was added to induce cell lysis and terminate the reaction. The assay plate was incubated for 1 h at room temperature. The time-resolved fluorescence resonance energy transfer (TR-FRET) signal was detected using an Infinite M1000 PRO (Tecan, Männedorf, Switzerland) with instrument settings from the LANCE cAMP detection kit manual.
The derivation of the Cheng–Prusoff equation was applied for the analysis of antagonist functional inhibition curves

[3] = test system: 5-HT1A receptor; parameters: method as in PMID 26660328; settings: cited from earlier work
[4] = target: T1, human 5-HT7 receptor; assay: Competition radioligand binding (orthosteric ligands ± Zn2+; Zn2+ titration curves); parameters: The full-length human 5-HT7b receptor complementary DNA (cDNA); settings: read-out: IC50 for inhibiting radioligand binding
Description: (§2) Cell pellets were thawed and homogenized in 10 volumes of 50 mM Tris–HCl buffer (pH 7.7) containing 0.1 mM EDTA, using an Ultra Turrax tissue homogenizer. The pellets were centrifuged twice at 35,000×g for 20 min at 4 °C, with 15-min incubation at 37 °C between centrifugations. The pellets were then resuspended in the incubation buffer as described below for the radioligand binding assays. The membrane protein concentrations were determined using the Pierce™ Coomassie (Bradford) Protein Assay Kit (Thermo Fisher Scientific, Waltham, USA), with bovine serum albumin (BSA) as the standard.
(§3) Data from the saturation (K D), competition binding (K i), and kinetic experiments (koff/offobs) were fitted to a one- or two-site model, and the models were compared using an F test (extra sum-of-squares test).
For the competition binding assay, the affinity constant values (K i) were calculated using the Cheng–Prusoff equation (Eq. 2): […]

[5] = target: T1, human 5-HT7 receptor; assay: Saturation radioligand binding in the absence and presence of Zn2+; parameters: The full-length human 5-HT7b receptor complementary DNA (cDNA); settings: non-linear regression, Eq. 1
Description: as §1, §2, §3

[6] = test system: HEK293 cells; settings: 30-min exposure, MTT and LDH tests
Description: To estimate potential ZnCl2-induced cell death, a colorimetric method was applied in which the amount of formazan salt that had formed after the conversion of lactate to pyruvate followed by the reduction of tetrazolium salt was proportional to the lactate dehydrogenase (LDH) activity in the sample. All procedures were conducted according to the manufacturer’s protocol (Pierce LDH Cytotoxicity Assay Kit, Thermo Fisher Scientific, Waltham, Massachusetts, USA). In brief, the level of LDH released from damaged cells into the culture medium was measured after a 30-min exposure to different concentrations of ZnCl2 in 96-well plates. Cell-free culture supernatants were collected from each well and incubated with the appropriate substrate mix at RT for 30 min. The intensity of the red color formed in the assay and measured at a wavelength of 490 nm was proportional to the LDH activity and the number of damaged cells. The data were normalized to the activity of LDH released from lysis buffer-treated cells (100%) and expressed as a percent of the total ± SEM from three separate experiments.
The yellow tetrazolium 3-(4,5-dimethylthiazolyl-2)-2,5-diphenyltetrazolium bromide (MTT) is reduced by metabolically active cells, by the action of dehydrogenase enzymes, generating NADH and NADPH. The resulting intracellular purple formazan is then solubilized and quantified by spectrophotometry. […]

[7] = test system: muscarinic M2 receptor; parameters: method as in PMID 17009927; settings: cited from earlier work
[8] = cation at both concentrations, 500 μM and 5 mM

T1 sequence (P34969 1-432 limits assumed): as above

[K+] [K^+]
effect on the binding of the three tested radioligands [1, 8]: did not alter

[Ca+2] [Ca^2+]
effect on the binding of the three tested radioligands ([1]; cation 500 μM): did not alter
decrease in radioligand binding relative to the control [1]: 10 to 20%

[Na+] [Na^+]
effect on the binding of the three tested radioligands [1, 8]: did not alter

CN1C[C@@H](NS(=O)(=O)N(C)C)C[C@@H]2c3cccc4c3c(cn4C)C[C@H]21 [Mesulergine, mesulergine]
K B ([2]; Zn2+ 0 μM): 31.05 ± 7.51 nM
K B ([2]; Zn2+ 0 μM, listed as mesulergine): 31 nM
K B ([2]; Zn2+ 10 μM): 37.15 ± 6.86 nM
effect on constitutive (unstimulated cAMP) activity [2]: inverse agonistic properties

[Cl-].[Cl-].[Zn+2] [Zn^2+, ZnCl2]
effect on constitutive (unstimulated cAMP) activity [2]: no influence
functional profile ([2]; zinc concentration up to 10 μM): weak neutral antagonist
effect on agonist binding ([3]; Zn2+ 10 μM): potentiation
effect on agonist binding ([3]; Zn2+ 500 μM): inhibition
IC50 ([4]; vs [3H]5-CT at fixed concentration (≤K D)): 346 µM
IC50 ([4]; vs [3H]SB-269970 at fixed concentration (≤K D)): 1170 µM
IC50 ([4]; vs [3H]mesulergine at fixed concentration (≤K D)): 241 µM
effect on the level of [3H]SB-269970 binding ([1]; cation 500 μM): did not influence
reduction of [3H]5-CT binding ([1]; cation 500 μM): 67%
reduction of [3H]mesulergine binding ([1]; cation 500 μM): 55%
decrease in radioligand binding relative to the control [1]: up to 90%
cooperativity factor α ([5]; vs [3H]5-CT binding): 0.15
cooperativity factor α ([5]; vs [3H]SB-269970 binding): 0.06
cooperativity factor α ([5]; vs [3H]mesulergine binding): 0.25
concentration not affecting the number of living cells [6]: ≤ 200 µM

C=CC[N@@+]12CC[C@@]34c5ccccc5N5/C=C6/[C@H]7C[C@H]8[C@@]9(CC[N@@+]8(CC=C)C/C7=C/CO)c7ccccc7N(/C=C(/[C@@H](C[C@@H]31)/C(=C\CO)C2)[C@H]54)[C@@H]69 [alcuronium]
change in the affinity of acetylcholine (fold) [7]: 10 fold
change in the affinity of arecoline (fold) [7]: 1.7 fold

[Mg+2] [Mg^2+]
effect on the binding of the three tested radioligands ([1]; cation 500 μM): did not alter
decrease in radioligand binding relative to the control [1]: 10 to 20%
